Common to all, as to format: cell-based
Assay [1] relates to E. coli BW25113. In words: MIC, microdilution in 96-well plates. The conditions noted are these: Escherichia coli, BW25113, B: E. coli BW25113; read-out: MIC. In a few lines:
(§1)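 Inoculum 1:10000 (LB, log-phase subculture). Triplicate twofold dilutions plus DMSO column. 37° C., shaken, 16-18 h. Lowest non-turbid well = MIC. CLSI method.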

The subject of assay [2] is Edwardsiella tarda. The assay can be described thus: MIC, microdilution in 96-well plates. The conditions noted are these: D: Edwardsiella tarda. In a few lines: as §1
Assay [3] has as its system E. coli JW5503 (deltolC). The assay can be described thus: MIC, 20-strain panel. The conditions noted are these: Escherichia coli, C: E. coli JW5503 (deltolC). The method, then:
(§2) A microdilution method in 96-well plates was used and the MIC protocol established by the Clinical Laboratory Standards Institute was followed. From a growing subculture, a 1:10000 inoculum of each strain in Luria-Bertani media was prepared and aliquoted 100 μL in 4 columns of wells, except for the top row wells, which contained 200 μL of inoculum. A solution of gyramide C2 was aliquoted into 3 of the wells containing 200 μL and DMSO was added to the 4th well. The liquid in each of wells was mixed with a multi-channel pipet and 100 μL was transferred to the next well and mixed. The 2-fold dilution was continued down the 96-well plate until 100 μL was left, which was discarded. The plates were incubated at 37° C. with shaking for 16-18 hours. The MIC was determined as the lowest concentration that inhibited growth and had no turbidity by visual inspection.
(§3) Minimum inhibitory concentrations of various gyramide compounds against 20 strains of bacteria were determined using the procedure described above.

The test system of assay [4] is E. coli MG1655. The assay can be described thus: MIC, 20-strain panel. To be noted: Escherichia coli, MG1655, A: E. coli MG1655; read-out: MIC. The method, then: as §2, §3
The test system of assay [5] is Klebsiella pneumoniae subsp. pneumoniae. In words: MIC, 20-strain panel. To be noted: E: Klebsiella pneumoniae subsp. pneumoniae. The procedure: as §2, §3
Assay [6] deals with Salmonella enterica subsp. enterica typhimurium. In words: MIC, 20-strain panel. The conditions noted are these: F: Salmonella enterica subsp. enterica Typhimurium. The method, then: as §2, §3
The subject of assay [7] is Shigella flexneri. The assay can be described thus: MIC, 20-strain panel. To be noted: G: Shigella flexneri. The procedure: as §2, §3
Assay [8] deals with Staphylococcus aureus subsp. aureus. The assay can be described thus: MIC, 20-strain panel. The conditions noted are these: H: Staphylococcus aureus subsp. aureus, read-out: MIC. The procedure: as §2, §3
Assay [9] deals with Staphylococcus epidermidis. In words: MIC, 20-strain panel. The method, then: as §2, §3
The subject of assay [10] is Staphylococcus saprophyticus subsp. saprophyticus. The assay can be described thus: MIC, 20-strain panel. The method, then:
as §2, §3

For assay [11], the system named is Streptococcus agalactiae. In words: MIC, 20-strain panel. The procedure: as §2, §3
Assay [12] relates to Streptococcus pyogenes. The assay can be described thus: MIC, 20-strain panel. The procedure:
as §2, §3

In brackets after ≈: the same amount, converted by molar mass.

The source of these data is US10253039B2, “Inhibitors of bacterial DNA gyrase with efficacy against gram-negative bacteria” (priority 2014, dated 2019).

On to `O=S(=O)(N[C@@H]1CCN(Cc2ccc(OC3CCOCC3)cc2)C1)c1cccc(C(F)(F)F)c1` [Compound 38], for which the MIC is more than 8 µg/mL in assay [1]; more than 8 µg/mL in [2]; 1 µg/mL (≈ 2.06 µM) in [3]; more than 8 µg/mL in [4]; more than 8 µg/mL in [5]; more than 8 µg/mL in assay [6]. The MIC in [7], in assay [8], in assay [9], in assay [10], in assay [11] and in assay [12] was more than 8 µg/mL throughout.

With `O=S(=O)(N[C@@H]1CCN(Cc2ccc(OC3CCOCC3)cc2)C1)c1cccc(OC(F)(F)F)c1` [Compound 39], the MIC is more than 8 µg/mL in [1]; more than 8 µg/mL in assay [2]; 1 µg/mL (≈ 2 µM) in [3]; more than 8 µg/mL in assay [4]; more than 8 µg/mL in assay [5]; more than 8 µg/mL in assay [6]. The MIC in assay [7], in assay [8], in assay [9], in assay [10], in [11] and in assay [12] was more than 8 µg/mL each time.

As to `N#Cc1cccc(S(=O)(=O)N[C@@H]2CCN(Cc3ccc(OC4CCCC4)cc3)C2)c1` [Compound 40], the MIC was more than 8 µg/mL in [1]; more than 8 µg/mL in assay [2]; 0.5 µg/mL (≈ 1.17 µM) in [3]; more than 8 µg/mL in assay [4]; more than 8 µg/mL in assay [5]; 4 µg/mL (≈ 9.4 µM) in assay [6]. The MIC in assay [7], in assay [8], in assay [9], in assay [10], in assay [11] and in [12] was more than 8 µg/mL throughout.

For the molecule `O=S(=O)(N[C@@H]1CCN(Cc2ccc(OC3CCCC3)cc2)C1)c1cccc(C(F)(F)F)c1` [Compound 41], the MIC in [1] is more than 8 µg/mL; in assay [2], more than 8 µg/mL; in assay [3] it was 0.5 µg/mL (≈ 1.07 µM); in assay [4], more than 8 µg/mL; in assay [5], more than 8 µg/mL; in [6] it was 8 µg/mL (≈ 17.1 µM). In addition, the MIC was more than 8 µg/mL in assay [7]; approximately 8 µg/mL (≈ 17.1 µM) in [8]; 8 µg/mL (≈ 17.1 µM) in assay [9]; more than 8 µg/mL in assay [10]; more than 8 µg/mL in assay [11]; more than 8 µg/mL in [12].

As for `COc1cc(CN2CC[C@@H](NS(=O)(=O)c3cccc(C(F)(F)F)c3)C2)ccc1OC(C)C` [Compound 42], the minimal inhibitory concentration (MIC) in assay [1], in [2], in assay [3], in assay [4], in assay [5] and in [6] was more than 8 µg/mL each time. For the same molecule, the MIC in assay [7], in assay [8], in [9], in assay [10], in assay [11] and in assay [12] was more than 8 µg/mL each time.

As to `O=S(=O)(N[C@@H]1CCN(Cc2ccc(-c3ccccn3)cc2)C1)c1cccc(C(F)(F)F)c1` [Compound 43], the MIC in [1] is more than 8 µg/mL; in [2], more than 8 µg/mL; in assay [3] it was 0.5 µg/mL (≈ 1.08 µM); in assay [4] it was more than 8 µg/mL; in assay [5], more than 8 µg/mL; in [6], more than 8 µg/mL. Besides, the MIC in [7], in assay [8], in assay [9], in assay [10], in [11] and in assay [12] was more than 8 µg/mL throughout.

`CC(=O)c1cccc(S(=O)(=O)N[C@@H]2CCN(Cc3ccc(-c4ccccc4)cc3)C2)c1` [Compound 44]: the MIC is more than 8 µg/mL in assay [1]; more than 8 µg/mL in [2]; 0.25 µg/mL (≈ 0.575 µM) in assay [3]; more than 8 µg/mL in [4]; more than 8 µg/mL in [5]; 8 µg/mL (≈ 18.4 µM) in assay [6]. Also, the MIC in assay [7], in [8], in [9], in assay [10], in assay [11] and in assay [12] was more than 8 µg/mL throughout.

Take `O=S(=O)(N[C@@H]1CCN(Cc2ccc(OC3CCCC3)cc2)C1)c1cccc(OC(F)(F)F)c1` [Compound 45]: the MIC in assay [1] is more than 8 µg/mL; in assay [2], more than 8 µg/mL; in [3], 2 µg/mL (≈ 4.13 µM); in [4] it was more than 8 µg/mL; in assay [5], more than 8 µg/mL; in assay [6], more than 8 µg/mL. Moreover, the MIC in assay [7] was more than 8 µg/mL; in assay [8] it was more than 8 µg/mL; in [9], 8 µg/mL (≈ 16.5 µM); in assay [10] it was more than 8 µg/mL; in [11], more than 8 µg/mL; in assay [12] it was more than 8 µg/mL.

On to `N#Cc1cccc(S(=O)(=O)N[C@@H]2CCN(Cc3ccc(-c4ccccn4)cc3)C2)c1` [Compound 46], for which the MIC is more than 8 µg/mL in [1]; more than 8 µg/mL in [2]; 1 µg/mL (≈ 2.39 µM) in assay [3]; more than 8 µg/mL in assay [4]; more than 8 µg/mL in [5]; 8 µg/mL (≈ 19.1 µM) in assay [6]. Also, the MIC in [7], in assay [8], in assay [9], in assay [10], in [11] and in assay [12] was more than 8 µg/mL in each case.

For `O=S(=O)(N[C@@H]1CCN(Cc2ccc(-c3ccccc3)cc2)C1)c1cc(C(F)(F)F)ccc1Cl` [Compound 47], the MIC in assay [1] is more than 8 µg/mL; in assay [2] it was more than 8 µg/mL; in [3], 1 µg/mL (≈ 2.02 µM); in assay [4], more than 8 µg/mL; in assay [5] it was more than 8 µg/mL; in assay [6] it was approximately 8 µg/mL (≈ 16.2 µM). Also, the MIC in [7] is more than 8 µg/mL; in [8], more than 8 µg/mL; in assay [9] it was approximately 8 µg/mL (≈ 16.2 µM); in [10] it was more than 8 µg/mL; in assay [11], more than 8 µg/mL; in assay [12], approximately 8 µg/mL (≈ 16.2 µM).

In the case of `O=S(=O)(N[C@@H]1CCN(Cc2ccc(-c3ccccn3)cc2)C1)c1cccc(OC(F)(F)F)c1` [Compound 48], the MIC in [1] was more than 8 µg/mL; in [2] it was more than 8 µg/mL; in assay [3] it was 1 µg/mL (≈ 2.09 µM); in assay [4], more than 8 µg/mL; in [5] it was more than 8 µg/mL; in assay [6], more than 8 µg/mL. Also, the MIC in [7], in assay [8], in assay [9], in assay [10], in assay [11] and in [12] was more than 8 µg/mL each time.

In the case of `CC(=O)c1cccc(S(=O)(=O)N[C@@H]2CCN(Cc3ccc(OC(C)C)cc3)C2)c1` [Compound 49], the MIC is more than 8 µg/mL in [1]; more than 8 µg/mL in [2]; 2 µg/mL (≈ 4.8 µM) in assay [3]; more than 8 µg/mL in assay [4]; more than 8 µg/mL in [5]; more than 8 µg/mL in assay [6]. The MIC in assay [7], in assay [8], in assay [9], in assay [10], in assay [11] and in assay [12] was more than 8 µg/mL throughout.

For `O=S(=O)(N[C@@H]1CCN(Cc2ccc(-c3cccc(Cl)c3)cc2)C1)c1cccc(C(F)(F)F)c1` [Compound 50], the MIC is more than 8 µg/mL in [1]; more than 8 µg/mL in assay [2]; 8 µg/mL (≈ 16.2 µM) in [3]; more than 8 µg/mL in [4]; more than 8 µg/mL in assay [5]; more than 8 µg/mL in [6]. Also, the MIC in assay [7] is more than 8 µg/mL; in assay [8], 8 µg/mL (≈ 16.2 µM); in assay [9], 2 µg/mL (≈ 4.04 µM); in assay [10], more than 8 µg/mL; in [11], more than 8 µg/mL; in assay [12], approximately 8 µg/mL (≈ 16.2 µM).
